Patent US10940188B2, “Compounds and methods for treatment and prevention of Flavivirus infection” (priority 2016, dated 2021)

system: ZIKV-induced caspase 3/7 activity in SNB-19 cells; assay: Caspase 3/7 activity assay, ZIKV-infected SNB-19 cells; type: cell-based; conditions: Homo sapiens; ZIKV-infected SNB-19 cells; read-out: Caspase 3 (IC50, uM) SNB-19
Experimental: (§1) Caspase-Glo 3/7 assay kit (catalog number G8092; Promega, Madison, Wis.) was used to detect caspase 3/7 activity. Reagents were reconstituted as described in the protocol from the manufacturer. Polystyrene plates (384-well and 1536-well; regular tissue culture treated and PDL coated) were purchased from Greiner Bio-One (Monroe, N.C.). Cells were seeded in 384- and 1536-well assay plates and cultured at 37° C. with 5% CO2 for 16 hours. ZIKV solution was added to cells, followed by incubation at 37° C. with 5% CO2 for 6 hours. Caspase-Glo 3/7 was added to each well, unless otherwise specified, and incubated at room temperature for 30 minutes. The luminescence intensity of the assay plates was measured using a ViewLux plate reader (PerkinElmer). Data were normalized by using the cell-containing wells without ZIKV as a negative control (0% induction of caspase 3/7 activity) and wells containing ZIKV infected cells that induced caspase 3/7 activity were used as a positive control (100% induction of caspase 3/7 activity). […]
(§2) Caspase-Glo 3/7 assay kit (Promega) was used to detect caspase 3/7 activity. Reagents were reconstituted as described in the protocol from the manufacturer. Cells were seeded in 384- and 1536-well assay plates and cultured at 37° C. with 5% CO2 for 16 hours. ZIKV solution was added to cells, followed by incubation at 37° C. with 5% CO2 for 6 hours. Caspase-Glo 3/7 was added to each well at a 1:1 ratio, unless otherwise specified, and incubated at room temperature for 30 minutes. The luminescence intensity of the assay plates was measured using a ViewLux plate reader (PerkinElmer). Data was normalized by using the cell-containing wells without ZIKV as a negative (0% induction of caspase 3/7 activity) control and wells containing ZIKV infected cells that induced caspase 3/7 activity were used as a positive control (100% induction of caspase 3/7 activity). […]

IC50 | SMILES
17.3 µM | COc1ccc(/C=C/C(=O)Nc2ccccc2C(=O)O)cc1OC [Tranilast]
8.69 µM | O=c1cc(-c2ccccc2)oc2cc(O)cc(O)c12 [5,7-Dihydroxyflavone]
15.5 µM | O=C1C[C@@H](c2ccc(O)cc2)Oc2cc(O)cc(O)c21 [Naringenin]
3.27 µM | Cc1oncc1C(=O)Nc1ccc(C(F)(F)F)cc1 [Leflunomide]
1.03 µM | C/C(O)=C(\C#N)C(=O)Nc1ccc(C(F)(F)F)cc1 [Teriflunomide]

SMILES | IC50
O=C(Nc1ccc(Br)cc1)c1cc(Br)cc(Br)c1O [Tribromsalan] | 7.74 µM

same assay, conditions: Homo sapiens; ZIKV-infected SNB-19 cells; read-out: Caspase 3 (efficacy, %) SNB-19

SMILES | Emax
COc1ccc(/C=C/C(=O)Nc2ccccc2C(=O)O)cc1OC [Tranilast] | 70.3%
O=c1cc(-c2ccccc2)oc2cc(O)cc(O)c12 [5,7-Dihydroxyflavone] | 42.7%
O=C1C[C@@H](c2ccc(O)cc2)Oc2cc(O)cc(O)c21 [Naringenin] | 66.3%
O=C(Nc1ccc(Br)cc1)c1cc(Br)cc(Br)c1O [Tribromsalan] | 107%
Cc1oncc1C(=O)Nc1ccc(C(F)(F)F)cc1 [Leflunomide] | 106%
C/C(O)=C(\C#N)C(=O)Nc1ccc(C(F)(F)F)cc1 [Teriflunomide] | 93.1%

system: ZIKV-induced cell death in SNB-19 cells; assay: ATP cell viability assay for ZIKV-induced cell death, SNB-19 cells; type: cell-based, human; conditions: not given
Experimental: (§3) The reagent was reconstituted and prepared as described by the manufacturer. In order to measure the cell death caused by ZIKV infection, cells were cultured for 16 hours at 37° C. with 5% CO2 in assay plates, followed by the addition of ZIKV solution and incubation at 37° C. with 5% CO2 for 72 hours. ATPlite, the ATP monitoring reagent, was then added to the assay plates and they were incubated for 15 minutes. The resulting luminescence was measured using the ViewLux plate reader (Perkin Elmer). Data were normalized using the wells without cells as a control for 100% cell killing, and cell-containing wells without ZIKV infection were used as full cell viability (0% cell killing). […]
as §3, with “The ATPlite luminescence assay system assay kit (PerkinElmer) was used to determine cell viability. The reagent” for “The reagent”, “by the manufacture. In order” for “by the manufacturer. In order”, “followed by addition of” for “followed by the addition of”, “plates and incubated for” for “plates and they were incubated for”, “Elmer). Data was normalized using” for “Elmer). Data were normalized using”

SMILES | Cell viability (efficacy, %) SNB-19
O=C(Nc1ccc(Br)cc1)c1cc(Br)cc(Br)c1O [Tribromsalan] | 0.0%

same assay, conditions: ZIKV-infected SNB-19 cells

SMILES | Cell viability (efficacy, %) SNB-19
COc1ccc(/C=C/C(=O)Nc2ccccc2C(=O)O)cc1OC [Tranilast] | 0.0%
O=c1cc(-c2ccccc2)oc2cc(O)cc(O)c12 [5,7-Dihydroxyflavone] | 0.0%
O=C1C[C@@H](c2ccc(O)cc2)Oc2cc(O)cc(O)c21 [Naringenin] | 0.0%
Cc1oncc1C(=O)Nc1ccc(C(F)(F)F)cc1 [Leflunomide] | 0.0%
C/C(O)=C(\C#N)C(=O)Nc1ccc(C(F)(F)F)cc1 [Teriflunomide] | 0.0%

system: ZIKV-induced cell death in human astrocytes; assay: ATP cell viability assay for ZIKV-induced cell death, human astrocytes; type: cell-based; conditions: not given

SMILES | Cell viability (efficacy, %) Astrocyte
O=C(Nc1ccc(Br)cc1)c1cc(Br)cc(Br)c1O [Tribromsalan] | 0.0%

same assay, conditions: ZIKV-infected human astrocytes

SMILES | Cell viability (efficacy, %) Astrocyte
COc1ccc(/C=C/C(=O)Nc2ccccc2C(=O)O)cc1OC [Tranilast] | 0.0%
O=c1cc(-c2ccccc2)oc2cc(O)cc(O)c12 [5,7-Dihydroxyflavone] | 0.0%
O=C1C[C@@H](c2ccc(O)cc2)Oc2cc(O)cc(O)c21 [Naringenin] | 0.0%
Cc1oncc1C(=O)Nc1ccc(C(F)(F)F)cc1 [Leflunomide] | 0.0%
C/C(O)=C(\C#N)C(=O)Nc1ccc(C(F)(F)F)cc1 [Teriflunomide] | 0.0%

system: ZIKV-induced caspase 3/7 activity in human astrocytes; assay: Caspase 3/7 activity assay, ZIKV-infected human astrocytes; type: cell-based; conditions: Astrocyte; ZIKV-infected human astrocytes; read-out: Caspase 3 (IC50, uM) Astrocyte
Experimental: as §1, §2

IC50 | SMILES
17.3 µM | COc1ccc(/C=C/C(=O)Nc2ccccc2C(=O)O)cc1OC [Tranilast]
15.5 µM | O=c1cc(-c2ccccc2)oc2cc(O)cc(O)c12 [5,7-Dihydroxyflavone]
17.3 µM | O=C1C[C@@H](c2ccc(O)cc2)Oc2cc(O)cc(O)c21 [Naringenin]
4.35 µM | Cc1oncc1C(=O)Nc1ccc(C(F)(F)F)cc1 [Leflunomide]
1.3 µM | C/C(O)=C(\C#N)C(=O)Nc1ccc(C(F)(F)F)cc1 [Teriflunomide]

SMILES | IC50
O=C(Nc1ccc(Br)cc1)c1cc(Br)cc(Br)c1O [Tribromsalan] | 6.9 µM

same assay, conditions: Astrocyte; ZIKV-infected human astrocytes; read-out: Caspase 3 (efficacy, %) Astrocyte

SMILES | Emax
COc1ccc(/C=C/C(=O)Nc2ccccc2C(=O)O)cc1OC [Tranilast] | 71.6%
O=c1cc(-c2ccccc2)oc2cc(O)cc(O)c12 [5,7-Dihydroxyflavone] | 55.1%
O=C1C[C@@H](c2ccc(O)cc2)Oc2cc(O)cc(O)c21 [Naringenin] | 65.2%
O=C(Nc1ccc(Br)cc1)c1cc(Br)cc(Br)c1O [Tribromsalan] | 102%
Cc1oncc1C(=O)Nc1ccc(C(F)(F)F)cc1 [Leflunomide] | 98.1%
C/C(O)=C(\C#N)C(=O)Nc1ccc(C(F)(F)F)cc1 [Teriflunomide] | 86.9%

system: ZIKV-induced caspase 3/7 activity in hNPCs; assay: Caspase 3/7 activity assay, ZIKV-infected hNPCs; type: cell-based; conditions: Homo sapiens; ZIKV-infected hNPCs; read-out: Caspase 3 (IC50, uM) NPCs
Experimental: Caspase-Glo 3/7 assay kit (catalog number G8092; Promega, Madison, Wis.) was used to detect caspase 3/7 activity. Reagents were reconstituted as described in the protocol from the manufacturer. Polystyrene plates (384-well and 1536-well; regular tissue culture treated and PDL coated) were purchased from Greiner Bio-One (Monroe, N.C.). Cells were seeded in 384- and 1536-well assay plates and cultured at 37° C. with 5% CO2 for 16 hours. ZIKV solution was added to cells, followed by incubation at 37° C. with 5% CO2 for 6 hours. Caspase-Glo 3/7 was added to each well, unless otherwise specified, and incubated at room temperature for 30 minutes. The luminescence intensity of the assay plates was measured using a ViewLux plate reader (PerkinElmer). Data were normalized by using the cell-containing wells without ZIKV as a negative control (0% induction of caspase 3/7 activity) and wells containing ZIKV infected cells that induced caspase 3/7 activity were used as a positive control (100% induction of caspase 3/7 activity).
Human NPCs were seeded onto PDL coated 1536-well assay plates at 250 cells per 3 μl/well and incubated at 37° C. in 5% CO2 for 16 hours. Test compounds dissolved in DMSO were transferred to assay plates at a volume of 23 nl/well by an automated pintool workstation (Wako Automation, San Diego, Calif.). Compounds were incubated with cells for 30 minutes at 37° C. in 5% CO2, immediately followed by the addition of 2 μl/well of ZIKV. Incubation time of compound-treated cells with ZIKV varied based on assay format. Experiments measuring virus-induced caspase 3/7 activity required a 6 hour incubation of ZIKV in the presence compounds at 37° C. in 5% CO2. Following this incubation, 3.5 μl/well of caspase 3/7 reagent mixture was added to assay plates. The plates were incubated for 30 minutes at room temperature, and the resultant luminescence signal was measured using a ViewLux plate reader (Perkin Elmer). Experiments measuring virus-induced cell death required a 72-hour incubation of ZIKV in the presence of compounds at 37° C. in 5% CO2. Following this incubation, 3.5 μl/well of ATP content detection reagent was added to assay plates, incubated for 30 minutes at the room temperature, and the resultant luminescence signal was measured in a ViewLux plate reader.
Caspase-Glo 3/7 assay kit (Promega) was used to detect caspase 3/7 activity. Reagents were reconstituted as described in the protocol from the manufacturer. Cells were seeded in 384- and 1536-well assay plates and cultured at 37° C. with 5% CO2 for 16 hours. ZIKV solution was added to cells, followed by incubation at 37° C. with 5% CO2 for 6 hours. Caspase-Glo 3/7 was added to each well at a 1:1 ratio, unless otherwise specified, and incubated at room temperature for 30 minutes. The luminescence intensity of the assay plates was measured using a ViewLux plate reader (PerkinElmer). Data was normalized by using the cell-containing wells without ZIKV as a negative (0% induction of caspase 3/7 activity) control and wells containing ZIKV infected cells that induced caspase 3/7 activity were used as a positive control (100% induction of caspase 3/7 activity).
Human NPCs were seeded onto PDL coated 1536-well assay plates at 250 cells per 3 μl/well and incubated at 37° C. in 5% CO2 for 16 hours. Test compounds dissolved in DMSO were transferred to assay plates at a volume of 23 nl/well by an automated pintool workstation (Wako Automation, San Diego, Calif.). Compounds were incubated with cells for 30 minutes at 37° C. in 5% CO2, immediately followed by the addition of 2 μl/well of ZIKV. Incubation time of compound-treated cells with ZIKV varied based on assay format. Experiments measuring virus induced caspase 3/7 activity required a 6 hour incubation of ZIKV in the presence compounds at 37° C. in 5% CO2. […]

IC50 | SMILES
19.5 µM | COc1ccc(/C=C/C(=O)Nc2ccccc2C(=O)O)cc1OC [Tranilast]
5.48 µM | O=c1cc(-c2ccccc2)oc2cc(O)cc(O)c12 [5,7-Dihydroxyflavone]
15.5 µM | O=C1C[C@@H](c2ccc(O)cc2)Oc2cc(O)cc(O)c21 [Naringenin]
1.38 µM | Cc1oncc1C(=O)Nc1ccc(C(F)(F)F)cc1 [Leflunomide]
0.92 µM | C/C(O)=C(\C#N)C(=O)Nc1ccc(C(F)(F)F)cc1 [Teriflunomide]

SMILES | IC50
O=C(Nc1ccc(Br)cc1)c1cc(Br)cc(Br)c1O [Tribromsalan] | 13.8 µM

same assay, conditions: Homo sapiens; ZIKV-infected hNPCs; read-out: Caspase 3 (efficacy, %) NPCs

SMILES | Emax
COc1ccc(/C=C/C(=O)Nc2ccccc2C(=O)O)cc1OC [Tranilast] | 107%
O=c1cc(-c2ccccc2)oc2cc(O)cc(O)c12 [5,7-Dihydroxyflavone] | 51%
O=C1C[C@@H](c2ccc(O)cc2)Oc2cc(O)cc(O)c21 [Naringenin] | 63.4%
O=C(Nc1ccc(Br)cc1)c1cc(Br)cc(Br)c1O [Tribromsalan] | 108%
Cc1oncc1C(=O)Nc1ccc(C(F)(F)F)cc1 [Leflunomide] | 97.8%
C/C(O)=C(\C#N)C(=O)Nc1ccc(C(F)(F)F)cc1 [Teriflunomide] | 94.5%
